Data from US20090068143A1, “ORALLY EFFECTIVE C[…]” (priority 2005, published 2009).

How the values were obtained:
400 Gene Array = experiment: Gene array analysis of spinal cords, MOG induced EAE; type: in vivo, mouse; details: out of the 400 genes tested
Procedure: In an additional study, the gene expression profiling was performed using a 400 Gene Array series kit of SuperArray Bioscience Corporation according to manufacturer protocol and RNA extracted from spinal cords of treated or untreated animals, as above described. The scanned data were converted to mRNA expression levels and analyzed using two softwares, ScanAlayze and GEArray Analyzer. […] The genes so identified will be further analyzed by real time RT-PCR at other time points during disease progression. It is interesting to note that the genes whose expression is altered in MOG induced EAE animals following treatment with compounds of the invention broadly speaking encode for proteins involved in the immune system, such as STAT proteins which are involved in signal transduction of several cytokines and growth factors, JAK kinases, β2-microglobulin, TNF-receptor superfamily, calmodulins, and cyclin-dependent kinases.

inflammatory pain = experiment: Inflammatory pain and paw edema, λ carrageenan; type: in vivo, Sprague Dawley rats; details: for ΔLT between hind paws, thermal stimulus: 3 hours; for reduction of delta force between paws, tactile stimulus: vehicle 31 g
Procedure: Male Sprague Dawley rats (average body weight 200 g, Harlan, Israel) were transiently sedated by placement on dry ice for the duration of the injections. Rats were injected subcutaneously, in the subplantar region of one (right) paw with 0.1 ml of 2% w/v λ Carrageenan in sterile saline. […] Test compounds were administered p.o. by oral gavage immediately after the carrageenan injection as pretreatment. Vehicle (PB) treated animals were used as controls. Before induction of inflammatory pain and three hours after injection, the animals reactions to pain stimuli were tested in two systems. The first stimulus was thermal and assessed by the Plantar Test according to Hargreaves, using Ugo Basile Model 7370. The scale was set to an intensity of 50 arbitrary units. The latency time till the animal lift a paw as a reaction to the thermal stimulus was recorded for both the inflamed and non-inflamed hind paws. The second stimulus was mechanical (tactile) and assessed using a Dynamic Plantar Sesthesiomether (Ugo Basile Model 73400-002). […] Finally, the impact on paw edema was assessed. Paw thickness is measured using a dial thickness gauge (Spring-dial, constant low pressure gauge, Mitutoyo, TG/L-1, 0.00 mm) and paw volume is measured using a plethysmometer (model #7150, Ugo Basile, Italy). At the end of the study, animals were euthanized with an i.p. injection of 100 mg/kg pentobarbitone.
The results are measured as the differences between the two hind paws at time 0 and 3 hours both as ALT, for the latency time in the thermal part of the study, and as ΔForce, for the mechanical part of the study. The paw volume is expressed as percent from vehicle treated animals. Results are expressed as mean±SEM for each treatment group and the differences among those groups are analyzed by analysis of variance (ANOVA) followed by post-hoc Tukey's test. A value of p<0.05 was considered to be statistically significant and is indicated on the figure by an asterisk over the relevant treatment group.

[1] = test system: MOG induced chronic progressive EAE; experiment: MOG induced chronic-progressive EAE; details: for animals that reached a clinical score of 0 (fully recovered): 13 animals per group
[2] = test system: PLP induced remitting-relapsing EAE; experiment: PLP induced remitting-relapsing EAE

SMILES: CCCCCCC(C)(C)c1cc(O)c([C@H]2CC(=O)C3CC2C3(C)C)c(OC(=O)/C=C/C(=O)O)c1 (single isomer, unassigned; (-)) [Compound 18F, (−)-4-{4-[1,1-Dimethylheptyl]-2-fumarate-6-hydroxy-phenyl}-6,6-dimethyl-bicyclo[3.1.1]heptan-2-one]
- genes down-regulated or up-regulated by more than 1.5 fold upon treatment (400 Gene Array): twenty
- decrease in paw volume (inflammatory pain; 10 mg/kg p.o.): 6%
- percent reduction of delta force, tactile stimulus (inflammatory pain; 10 mg/kg p.o.): 23%
- reduction of ΔLT, thermal stimulus (inflammatory pain; 10 mg/kg p.o.): no reduction
- ΔLT between hind paws, thermal stimulus (inflammatory pain; 10 mg/kg p.o., vehicle about 7.5): 7.5 s
- decrease in paw volume (inflammatory pain; 20 mg/kg p.o.): 18%
- paw volume, percent of vehicle (inflammatory pain; 20 mg/kg p.o.): 82%
- reduction of ΔLT, thermal stimulus (inflammatory pain; 20 mg/kg p.o.): 69%
- ΔLT between hind paws, thermal stimulus (inflammatory pain; 20 mg/kg p.o.): 2.3 s
- reduction of delta force between paws, tactile stimulus (inflammatory pain; 20 mg/kg p.o.): 18 g
- reduction of ΔLT, thermal stimulus (inflammatory pain; 30 mg/kg p.o.): 88%
- ΔLT between hind paws, thermal stimulus (inflammatory pain; 30 mg/kg p.o.): 0.9 s
- decrease in paw volume (inflammatory pain; 30 mg/kg p.o., significant): 52%
- reduction of delta force between paws, tactile stimulus (inflammatory pain; 30 mg/kg p.o.): 19 g
- percent reduction of delta force, tactile stimulus (inflammatory pain; 20 and 30 mg/kg p.o.): about 60%
- reduction in Δforce, mechanical stimulus (inflammatory pain; single dose of 20 mg/kg p.o.): 58%
- reduction of clinical score, first peak day 14 to 25 ([1]; 20 mg/kg p.o. daily for 19 days from day 13): about 12%
- animals that reached a clinical score of 0 (fully recovered) ([1]; 20 mg/kg p.o.): 8%
- reduction of clinical score, first peak day 14 to 25 ([1]; 40 mg/kg p.o. daily for 19 days from day 13): 43%
- animals that reached a clinical score of 0 (fully recovered) ([1]; 40 mg/kg p.o.): 23%
- clinical score for about a week from day 36 ([1]; 60 mg/kg p.o.): about 0.2
- reduction of clinical score as compared to control, week from day 36 ([1]; 60 mg/kg p.o.): 80%
- reduction of clinical score, first peak day 14 to 25 ([1]; 60 mg/kg p.o. daily for 19 days from day 13): 44%
- animals that reached a clinical score of 0 (fully recovered) ([1]; 60 mg/kg p.o.): 31%
- clinical score below control at the end of the study ([1]; 60 mg/kg p.o., 20 days after treatment cessation): 30%
- clinical score at the end of the study ([1]; 60 mg/kg p.o., 20 days after treatment cessation, control 0.95): 0.65
- plateau level clinical score ([1]; 60 mg/kg p.o., control about 1.2): about 0.6
- side effects ([1]; high doses p.o., first 10 minutes post administration, eliminated from day 4): Some minor and transient side effects were observed
- day of first full recovery ([1]; highest dose (60 mg/kg p.o.), treatment from day 13): 16 days
- day of first full recovery ([1]; intermediate dose (40 mg/kg p.o.)): 17 days
- day of first full recovery ([1]; lowest dose (20 mg/kg p.o.)): 22 days
- reduction of AUC as compared to control group ([1]; separate study, 40 mg/kg p.o.): 36%
- AUC of clinical score ([1]; separate study, daily from day 13, 18F 40 mg/kg p.o., COP-1 25 mg/kg s.c., IFN-β 10,000 IU per mouse s.c., control 24.14): 15.47 units
- mean group clinical score at the end of the study ([1]; separate study, daily from day 13, 18F 40 mg/kg p.o., COP-1 25 mg/kg s.c., control above 2.4): 1.25
- relapse postponed as compared to controls ([2]; 40 mg/kg p.o. daily for 25 days): 5 to 7 days
- clinical score of the second peak ([2]; 40 mg/kg p.o. daily for 25 days from day 25, controls 0.7 and 0.8): 0.5
- side effects ([2]; 40 mg/kg p.o. for 25 days): No side effects were observed
- AUC of clinical score ([2]; 40 mg/kg p.o., day 35 to day 58, control 8.1): 2.1
- reduction in AUC as compared to control ([2]; 40 mg/kg p.o., day 35 to day 58, p=0.0025): 74%
- average reduction of clinical score ([2]; 40 mg/kg p.o., day 38 till end of study): 28%
